Measured values taken from patent publication US20190054109A1, “An antiviral composition and a method for application thereof” (ALLA CHEM, LLC, priority 2017, published 2019).
Converted amounts (≈) assume the structure as drawn. Read-outs that look alike come from different tables or passages of the source.

Experiments:
[1] = Cytotoxicity in Huh7 cells (ATPLite kit); assay type: cell-based; conditions: human
Experimental: The cytotoxicity of tested compositions comprising the prodrug was evaluated concurrently in the same cell line Huh7 using an ATPLite kit (Perkin-Elmer, Boston, USA) in accordance with the manufacturer's instruction. The cell suspension in complete culture medium (DMEM 1×, Cellgro; cat. #10-013-CV) was transferred into 96-well plates with black walls and transparent bottoms (50 μl/well) with a final density of 7500 cells per well. Eighteen hours after planting the cells, serial compound dilutions (50 μl/well) were added. The plate with cells was incubated for 4 days at 37° C. in a humidified 5% CO2 atmosphere. The cells were then twice washed with PBS (200 μl/well) and lysed by adding a lytic buffer (50 μl/well); all reagents were taken from the ATPLite kit. Following a 5-minute stirring on a shaker, a substrate was added (50 μl/well). After an additional 5-minute incubation, the plate was kept for 10 minutes in the dark, and luminescence in the wells was measured using the multifunctional reader Victor^3 V 1420 (Perkin Elmer). The values of CC50 for tested compounds were measured from a cytotoxicity curve plotted using the GraphPad Prizm software.

physchem = conditions: simulated gi fluid
Experimental: (§1) Evaluation of stability in biological matrix for compositions comprising the prodrug of formula 1.1. Initial compositions comprising the prodrug of formula 1.1 (the tested compounds) were prepared with a concentration of 10 mM in DMSO. From said compositions, 100-fold working solutions were prepared with a concentration of 100 μM in a mixture of acetonitrile: water with a volumetric ratio of 1:1.
The tested composition comprising the prodrug of formula 1.1 in a final concentration of 1 μM was incubated in artificial gastric juice (0.2% NaCl in 0.7% v/v HCl) and artificial intestinal juice (0.05M KH2PO4, pH 6.75). The incubation was performed in a Vortemp56 shaking incubator at 37° C. with stirring at a rate of 300 rev/min. […] The samples were then centrifuged, and the supernatant (150 μl) was sampled for analysis […]. The incubation was performed in two replicates, with each sample measured twice.
Samples were analyzed using an HPLC-MS/MS technique developed for each tested prodrug, wherein the chromatographic system 1290 Infinity II (Agilent Technologies) was combined with the tandem mass spectrometer QTRAP5500 (AB Sciex). When developing conditions for mass-spectrometric detection, the solutions of tested compounds in a mixture of acetonitrile-water (1:1) with a concentration of 100 ng/ml were injected directly into the mass spectrometer using a syringe pump with electrospray ionization carried out in a positive ion mode. Scanning in a total ion current mode (MS1) allowed us to identify a molecular ion for each compound, and basic product ions were recorded in MS2 mode. Then, to attain maximum sensitivity, the MS/MS technique was optimized in MRM mode. In quantitative chromatogram processing, the most intensive MRM transition was used for the analyte and the internal standard. Separation was carried out by means of linear gradient elution chromatography on a YMC Triart C18 column (50×2 mm, 1.9 μm) in a mobile phase consisting of 0.1% formic acid in water and 0.1% formic acid in acetonitrile. Tolbutamide (Fluka) was used as the internal standard.
Half-life (T1/2) was found from the kinetics of tested prodrug elimination in an antiviral composition during incubation in a biological matrix. The computations were based on the values of chromatographic peak areas for compounds in test samples normalized to the internal standard signal. From linear dependence of log normalized areas of chromatographic peaks on time, the constant of elimination rate was calculated (k is linear section slope).

[2] = Kinetic solubility (MultiScreen Solubility filter plate, UV); assay type: physicochemical; conditions: aqueous buffer with 2% DMSO, kinetic from dmso stock, 260 nm
Experimental: The tested compound was dissolved in DMSO to reach a 10-mM concentration and then poured into an aqueous solvent (a phosphate buffer, water, or universal buffers of different pH values) to bring the concentration down to 200 μM. The resulting solution placed in a 96-well filter plate (Millipore's MultiScreen Solubility Filter Plate) was incubated for an hour at room temperature on a shaker, and the residue was filtered off in vacuo. The absorption spectrum of the compound was recorded on a spectrophotometer in a range of 240-400 nm with a 10-nm increment. […] The range of estimated concentrations was 3-200 μM. The test procedure was performed in duplicate.
Six standard samples with concentrations of 0, 3.125, 12.5, 50, 100, and 200 μM were prepared in the wells of a UV 96-well plate by adding 4 μl of corresponding 50× stock solutions in DMSO to 196 μl of a buffer comprising 40% acetonitrile. The concentration of DMSO in all points was constant and equal to 2% (v/v).
To plot calibration curves, the optical spectrum of the UV plate was recorded in a wavelength range of 250 400 nm with a 10-nm increment. Based on the spectral data for each compound, wavelengths were selected to meet the following criteria:
For minimum compound concentration, OD>0.1 (AU);
For maximum compound concentration, OD<2.0.
For each compound, a calibration curve was plotted with OD at selected wavelength as a function of concentration.
Solubility was evaluated in a MultiScreen Solubility (Millipore Corp.) filter plate as follows:
Into each well of the MultiScreen Solubility filter plate, 196 μl of a buffer (without acetonitrile) and 4 μl of a 10-mM compound in DMSO or 4 μl of DMSO (for a blank matrix) were added. The plate was incubated for one hour on a shaker (400 rpm) at room temperature.
The resulting solutions were filtered off through the filter plate by means of vacuum (10″ Hg) into a polypropylene plate with a U-shaped bottom.
From the U-bottom plate, the filtrate (120 μl/well) was transferred into a new UV plate, where to acetonitrile (80 μl/well) was added.
The optical density of resulting solutions for a pre-selected wavelength was measured for each compound.
The final compound concentration in the filtrate was computed as follows:
Cfiltrate=(ODλFiltrate-ODλBlank)/Slope×1.67,

in vitro = conditions: human, plasma
Experimental: as §1
The incubation was performed in a Vortemp56 shaking incubator at 37° C. with stirring at a rate of 300 rev/min. […] The samples were then centrifuged, and the supernatant (150 μl) was sampled for analysis […]. The incubation was performed in two replicates, with each sample measured twice.
Samples were analyzed using an HPLC-MS/MS technique developed for each tested prodrug, wherein the chromatographic system 1290 Infinity II (Agilent Technologies) was combined with the tandem mass spectrometer QTRAP5500 (AB Sciex). […] Scanning in a total ion current mode (MS1) allowed us to identify a molecular ion for each compound, and basic product ions were recorded in MS2 mode. […] In quantitative chromatogram processing, the most intensive MRM transition was used for the analyte and the internal standard. […]

With C[C@H](N[P@](=O)(OC[C@H]1O[C@@H](n2ccc(=O)[nH]c2=O)[C@](C)(F)[C@@H]1O)Oc1ccccc1)C(=O)OC1CCC1 [Prodrug 1.1, cyclobutyl (S)-2-{(S)-[(2R,3R,4R,5R)-5-(3,4-dihydro-2,4-dioxo-2H-pyrimidin-1-yl)-3-hydroxy-4-methyl-4-fluoro-tetrahydro-furan-2-ylmethoxy]-phenoxy-phosphorylamino}-propanoate] as the compound, how does the CC90 at 4 days ([1]; Huh7, 10% FBS) read?
The CC90 at 4 days was > 100 µM.

What about the CC50 at 4 days ([1]; Huh7, ATPLite, 4 days) of the same compound?
The CC50 at 4 days was > 100 µM.

And the half-life at 1 μM (physchem; T1/2 SGF, artificial gastric juice, 37° C.)?
Its half-life at 1 μM is 12.7 to 15 h.

What about the half-life at 1 μM (physchem; pH 6.75) of the same compound?
The half-life at 1 μM was > 24 h.

What about the solubility at 1 h ([2]; pH 2, aqueous buffer, recrystallized from acetic acid, polycrystal, read-out: Solubility at pH 2) of the same compound?
The solubility at 1 h was 0.63 mg/mL (≈ 1160 µM).

And the solubility at 1 h ([2]; pH 2, aqueous buffer, recrystallized from dimethyl sulfoxide, crystal, read-out: Solubility at pH 2)?
Its solubility at 1 h is 0.18 mg/mL (≈ 332 µM).

What about the solubility at 1 h ([2]; pH 2, aqueous buffer, recrystallized from ethanol, polycrystal, read-out: Solubility at pH 2) of the same compound?
The solubility at 1 h was 0.2 mg/mL (≈ 369 µM).

And the solubility at 1 h ([2]; pH 2, aqueous buffer, recrystallized from ethyl acetate and methyl-tert-butyl ether mixture, polycrystal, read-out: Solubility at pH 2)?
The solubility at 1 h was 0.25 mg/mL (≈ 462 µM).

What about the solubility at 1 h ([2]; pH 2, aqueous buffer, recrystallized from ethyl acetate, polycrystal, read-out: Solubility at pH 2) of the same compound?
Its solubility at 1 h is 0.22 mg/mL (≈ 406 µM).

What about the solubility at 1 h ([2]; pH 7, aqueous buffer, recrystallized from acetic acid, polycrystal, read-out: Solubility at pH 7) of the same compound?
Its solubility at 1 h is 0.67 mg/mL (≈ 1240 µM).

What about the solubility at 1 h ([2]; pH 7, aqueous buffer, recrystallized from dimethyl sulfoxide, crystal, read-out: Solubility at pH 7) of the same compound?
The solubility at 1 h was 0.18 mg/mL (≈ 332 µM).

And the solubility at 1 h ([2]; pH 7, aqueous buffer, recrystallized from ethanol, polycrystal, read-out: Solubility at pH 7)?
The solubility at 1 h was 0.2 mg/mL (≈ 369 µM).

And the solubility at 1 h ([2]; pH 7, aqueous buffer, recrystallized from ethyl acetate and methyl-tert-butyl ether mixture, polycrystal, read-out: Solubility at pH 7)?
The solubility at 1 h was 0.24 mg/mL (≈ 443 µM).

And the solubility at 1 h ([2]; pH 7, aqueous buffer, recrystallized from ethyl acetate, polycrystal, read-out: Solubility at pH 7)?
The solubility at 1 h was 0.22 mg/mL (≈ 406 µM).

And the half-life at 1 μM (in vitro)?
Its half-life at 1 μM is > 24 h.
